Experimental data reported in the Biogen ADME set (Fang et al. 2023).
In brackets after ≈: the same amount, converted by molar mass.

Settings: for aqueous solubility: pH 6.8

MDR1-MDCK efflux ratio | intrinsic clearance, human liver microsomes [mL/min/kg] | intrinsic clearance, rat liver microsomes [mL/min/kg] | fraction unbound, human plasma | fraction unbound, rat plasma | aqueous solubility [µg/mL] | Compound
0.653 | 246 | 3180 |  |  |  | CN(CCSc1ccc2nnc(C(F)F)n2n1)Cc1ccccc1
19.3 | 64 | ≤ 10.7 |  |  | 40.4 (≈ 122 µM) | CN(Cc1cnn(C)c1)C(=O)c1ccccc1-c1ccccc1C#N
8.01 | 32.7 | 238 |  |  | 60.8 (≈ 165 µM) | CC(C)c1nc2c(n1C)CCN(C(=O)c1cccc(C(F)(F)F)c1F)C2
 | ≤ 4.74 | ≤ 10.7 |  |  | 35.1 (≈ 150 µM) | Cc1cc(F)ccc1NC(=O)Cn1cncn1
0.867 | ≤ 4.74 | 35.3 |  |  | 43.6 (≈ 149 µM) | Cc1ccccc1CNC(=O)c1ccc(-n2ccnc2)nc1
0.773 | 10.2 | 280 |  |  | 39.6 (≈ 120 µM) | Fc1ccc(NCc2cccc(OCCN3CCOCC3)c2)nc1
2.49 | ≤ 4.74 | ≤ 10.7 |  |  |  | O=c1oc2cccnc2n1Cc1ccccn1
0.541 | 75.1 | 420 |  |  |  | c1ccc(-c2nc(CSc3ccc(-n4cccn4)nn3)cs2)cc1
9.5 | 115 | 507 |  |  | 55.6 (≈ 131 µM) | Cc1cc(Nc2ccc(F)cn2)cc(C2CCN(C(=O)COc3ccccc3F)C2)n1 (configuration not stated)
0.889 | 62.6 | 288 |  |  | 2.09 (≈ 6.64 µM) | O=C(Cc1c(F)cccc1Cl)Nc1cccc2cnccc12
1.96 | 4.77 | 14.3 |  |  | 12.5 (≈ 28.1 µM) | O=C(/C=C\n1cnc(-c2cc(C(F)(F)F)cc(C(F)(F)F)c2)n1)NNc1cnccn1
6.73 | 821 | 1770 |  |  | 47 (≈ 106 µM) | COc1cccc(N(C)CCC(=O)N2CCC(c3ccc(-c4ccc(N)nc4)cn3)CC2)c1
 | 34.6 | 1080 |  |  |  | O=C(Nc1c(F)cccc1Oc1ccccc1)c1cnccn1
36.8 | 16.2 | 153 |  |  |  | CNCc1cc(NC)nc(C2CCCN2C(=O)C(C)(C)c2ccc(C)cc2)n1 (configuration not stated)
 | 37.8 | 336 |  |  |  | O=C(COc1cccc(-n2cncn2)c1)N1CCc2ccccc21
1.5 |  |  |  |  | 0.19 (≈ 0.428 µM) | Cc1cccc(Nc2ccc(C3CCN(C(=O)c4cc5cc(F)ccc5n4C)CC3)nc2)n1
30.8 | ≤ 4.74 | ≤ 10.7 |  |  | 39.6 (≈ 128 µM) | CN(Cc1ccn(-c2ccccc2)n1)C(=O)c1ccc(O)nc1
1.37 | 515 | 1520 |  |  | 35 (≈ 104 µM) | O=C(OCc1cc(Cl)ccn1)c1ccc2[nH]c(C(F)F)nc2c1
1.02 | 33.4 | 141 | 0.0522 | 0.00672 |  | Cc1oc2ccccc2c1CNc1nnc(-c2ccncc2)o1

Second part, the compound before the results:

Compound | MDR1-MDCK efflux ratio | intrinsic clearance, human liver microsomes [mL/min/kg] | intrinsic clearance, rat liver microsomes [mL/min/kg] | fraction unbound, human plasma | fraction unbound, rat plasma | aqueous solubility [µg/mL]
CN(C)C(=O)C1(Cc2ccccc2-c2cccc(F)c2)CCN(C(=O)C2CC=CCC2)CC1 (configuration not stated) | 1.46 | 997 | 2710 | 0.00787 | 0.0139 | 
NC1(c2nc(-c3ccsc3)no2)CCCCC1 |  | ≤ 4.74 | 447 |  |  | 
C[C@@H]1CN(Cc2ccccc2)C[C@H]1c1nc2c(cnn2C2CCOCC2)c(=O)[nH]1 | 14.3 | 36.3 | 321 |  |  | 
O=c1c2ccccc2nnn1CCOc1ccc(F)cc1 | 0.42 | 26.1 | 124 |  |  | 
CNC(=O)N1CCc2nc3ccc(Cl)cn3c(=O)c2C1 | 6.16 | ≤ 4.74 | ≤ 10.7 |  |  | 50.5 (≈ 173 µM)
CN1CCCN(C(=O)NCCOc2ccc3c(c2)OCO3)CC1 | 19.9 | ≤ 4.74 | 20.3 |  |  | 70 (≈ 218 µM)
Cc1nc2ccc(C(=O)NCCCc3ccc(F)cc3)cc2[nH]1 |  | 8.01 | 195 |  |  | 47.9 (≈ 154 µM)
NC1(c2noc(-c3cccnc3)n2)CCCCCC1 |  | ≤ 4.74 | 444 |  |  | 
CN1CCNc2nc3ccccc3nc21 | 0.671 | 74 | 143 |  |  | 
O=C(CNc1ccc(C(=O)N2CCCC2)cc1)N1CCCCC1 | 5.78 | ≤ 4.74 | 92.7 |  |  | 54.2 (≈ 172 µM)
Cc1ccc(C)n1-c1ccc(CNS(C)(=O)=O)cc1 |  |  |  |  |  | 24.2 (≈ 86.9 µM)
N#Cc1ccc(OCc2nnc(S)n2-c2ccccc2)cc1 |  |  |  |  |  | 45.7 (≈ 148 µM)
O=C(CN1CCC(c2ccccc2)CC1)N1CCNC1=O | 1.06 | ≤ 4.74 | 65.2 |  |  | 49.1 (≈ 171 µM)
Cc1cc(Br)ccc1CN(C)C(=O)CO | 0.75 | ≤ 4.74 | 28.6 |  |  | 
Nc1ncnc2c1c(-c1ccc(Oc3ccccc3)cc1)nn2[C@@H]1CCCNC1 | 21 | 35 | 103 | 0.0905 | 0.0702 | 40 (≈ 103 µM)
CC(C)c1nccn1Cc1nc(-c2cccs2)no1 |  | 13.6 | 1930 |  |  | 
Cc1cccc(O[C@H]2CN(Cc3ccc(OCCCO)cc3)C[C@@H]2O)c1 | 2.24 | 71 | 702 |  |  | 62 (≈ 173 µM)
COc1ccc(-c2noc([C@@H]3CCCN3Cc3ccccc3)n2)cn1 | 0.592 | 89.6 | 1150 |  |  | 25.5 (≈ 75.8 µM)
COc1ccc(C(=O)N2CCCC2)cc1NC(C)C | 1.08 | 7.82 | 86.8 |  |  | 35.9 (≈ 137 µM)
CCc1ccc(CC)c(C(=O)CSc2nncs2)c1 | 0.473 | 219 | 1550 |  |  | 
CCOc1ccc(CN[C@@H]2CCC[C@H]2Cc2cc(C)no2)cc1OC | 2.55 | 61.6 | 2220 |  |  | 

Compound | MDR1-MDCK efflux ratio | intrinsic clearance, human liver microsomes [mL/min/kg] | intrinsic clearance, rat liver microsomes [mL/min/kg] | fraction unbound, human plasma | fraction unbound, rat plasma | aqueous solubility [µg/mL]
CCCCOc1ccccc1-c1cc(C(=O)NCc2ccccc2C)[nH]n1 | 0.682 |  |  |  |  | 0.26 (≈ 0.715 µM)
CCc1cc(NS(C)(=O)=O)n(C)n1 | 2.54 | ≤ 4.74 | ≤ 10.7 |  |  | 
Cn1c(CNC(=O)Cc2cccc3ccccc23)nc2ccccc21 | 2.33 | 187 | 1590 |  |  | 10.1 (≈ 30.5 µM)
O=C1CCCN1CCc1nc(-c2ccc3[nH]c(=O)oc3c2)cs1 | 19.1 | ≤ 4.74 | 65.9 |  |  | 59 (≈ 179 µM)
CN(C(=O)c1cc2ccc(C(C)(C)C)cc2[nH]1)C1(C#N)CCC1 | 0.492 |  |  |  |  | 0.22 (≈ 0.711 µM)
COc1ccc(N)c(OCc2ccccc2)c1 | 0.705 | 103 | 707 |  |  | 
COc1ccc(S(=O)(=O)N2CCC(N3CCC(C)CC3)CC2)cc1 |  |  |  |  |  | 56.4 (≈ 160 µM)
Cn1cc(CNc2ncccn2)c(C(C)(C)C)n1 | 0.905 | ≤ 4.74 | 363 |  |  | 
O=C(NCc1ccc2c(c1)OCCO2)c1sccc1C1CC1 | 0.474 | 147 | 2320 |  |  | 31.2 (≈ 98.9 µM)
O=C(c1sc(N2CCOCC2)nc1-c1ccccc1)N1CCCCC1 | 1.18 | 45 | 845 |  |  | 58.4 (≈ 163 µM)
CN(Cc1cccc(C#N)c1)Cc1cnn(C)c1 | 0.578 | ≤ 4.74 | ≤ 10.7 |  |  | 32.1 (≈ 134 µM)
COCCCNc1ncc(-c2ccsc2)c(-c2nc(C)c(C)s2)n1 |  | 23.6 | 98.1 |  |  | 
CSCC(=O)Nc1nc(-c2ccc(C3CCCCC3)cc2)cs1 | 0.695 |  |  |  |  | 0.37 (≈ 1.07 µM)
CN(C)S(=O)(=O)CCCN1CCc2ccccc2CC1 | 0.6 | 15.9 | 716 |  |  | 
Cc1nn(C)c(C)c1-c1cc(C(C)(C)C)nc(N(C)C)n1 | 0.619 | 51.6 | 366 |  |  | 
Cc1nc(CN(C)C(=O)C2c3ccccc3-c3ccccc32)no1 | 1.09 | 15 | 430 |  |  | 32.6 (≈ 102 µM)
C/N=C(\NC#N)NCCSCc1nc[nH]c1C |  | ≤ 4.74 | ≤ 10.7 |  |  | 41.6 (≈ 165 µM)
CCOc1cc(N2CCOC3(CCCC3)C2)ncn1 | 0.579 | 37.4 | 631 |  |  | 
CS(=O)(=O)NCCc1ccc2c(c1)OCCO2 |  |  |  |  |  | 32.2 (≈ 125 µM)
Cc1nc(-c2ccc(S(=O)(=O)N(C)C)cc2)cc(C(C)C)n1 | 0.669 | 34.6 | 2230 |  |  | 
